# Like-named read-outs stand apart in the source and are kept apart here.
# What was measured:
# [1] = system: HO-1; assay: HO-1 synthesis by ELISA in adipocyte lysates; format: cell-based, Human; conditions: for activation at 3 ppm / activation at 5 ppm: Homo sapiens, Adipocyte, read-out: [HO-1] % Var / control
# Description: HO-1 enzymes catalyse the degradation of heme into biliverdin, iron, and carbon monoxide. Its overexpression is associated with a decrease in the size of adipocytes in adipose tissue, an increase of adiponectin secretion and a decrease of IL-6 and TNF secretion and is associated with weight loss.
# Human preadipocytes were seeded and induced to differentiate at confluence in the presence of a cocktail of specific inducers and the products to evaluate. After 10 days, the layers were crushed and the HO-1 content was measured in these lysates by ELISA. Furthermore after 10 days of differentiation, matiure adipocytes were placed in contact with the products for 48h and the HO-1 content was also measured in the cellular lysates. In parallel, an estimation of the cell quantification is realized on these two assays (Hoechst test).
# [2] = system: IL6; assay: IL6 synthesis by ELISA in adipocyte supernatants; format: cell-based; conditions: Homo sapiens
# Description: Human preadipocytes were seeded and induced to differentiate in the presence of a cocktail of specific inducers and the evaluated products. At the end of differentiation (at 7 and 10 days), the IL6 content synthetized by the adipocytes is measured in the culture supernatants by ELISA method. Furthermore, after 10 days of differentiation, mature adipocytes are placed in contact of the products during 72h and the IL6 content is also measured in the cellular supernatants. In parallel, survival estimation was realized on these two assays (Hoechst tests).
# [3] = system: adiponectin; assay: Adiponectin synthesis by ELISA, 3 days contact; format: cell-based, Human
# Description: Human preadipocytes were plated and induced to differentiate at confluence in the presence of a cocktail of specific inducers. After 10 days of differentiation, the cells are purged from inducers in their basis medium and left in contact with the products for 3 days in this medium. After contact, the supernatants were collected and the adiponectin amount was measured by ELISA.
# [4] = 72 h, adipocytes after differenciation (3days), read-out: IL6 % Var / control
smiles,measurement,setting,value
"C/C1=C\CC(C)(C)/C=C/C(=O)/C(C)=C/CC1 [Zerumbone, 2E, 6E, 9E-Humulatrien-8-one]",[HO-1],"[1]; 3ppm, adipocytes in the course of differenciation (10days)",51658 +/- 7985 ng/ 10^6 cell
same,[HO-1],"[1]; 3ppm, mature adipocytes (48h)",70229 +/- 10638 ng/ 10^6 cell
same,[HO-1],"[1]; 5ppm, adipocytes in the course of differenciation (10days)",67243 +/- 11428 ng/ 10^6 cell
same,[HO-1],"[1]; 5ppm, mature adipocytes (48h)",96700 +/- 4548 ng/ 10^6 cell
same,activation at 3 ppm,"[1]; 240 h, 3ppm, adipocytes in the course of differenciation (10days)",29%
same,activation at 5 ppm,"[1]; 240 h, 5ppm, adipocytes in the course of differenciation (10days)",68%
same,activation at 3 ppm,"[1]; 3ppm, mature adipocytes (48h)",142%
same,activation at 5 ppm,"[1]; 5ppm, mature adipocytes (48h)",233%
same,inhibition at 3 ppm,[2]; [4],33%
same,inhibition at 5 ppm,[2]; [4],31%
same,inhibition at 3 ppm,"[2]; 240 h, adipocytes in the course of differenciation (10days), read-out: IL6 % Var / control",49%
same,inhibition at 5 ppm,"[2]; 240 h, adipocytes in the course of differenciation (10days), p=0.09, read-out: IL6 % Var / control",50%
same,[Adiponectin],[3]; 2ppm,221.4 +/- 24.5 ng/10^E6 cell
same,[Adiponectin],[3]; 6ppm,19.0 +/- 0.6 ng/10^E6 cell
same,activation at 2 ppm,"[3]; Homo sapiens, 72 h, 2ppm, read-out: [Adiponectin] % Var / control",45%
same,activation at 6 ppm,"[3]; Homo sapiens, 72 h, 6ppm, read-out: [Adiponectin] % Var / control",95%

# Source: EP2802310B1, “NEW USE OF ZERUMBONE AND COMPOSITIONS COMPRISING ZERUMBONE” (Sederma, priority 2012, dated 2013)
